These results are taken from patent US10968203B2, “Pyrimidinyl-pyridyloxy-naphthyl compounds and methods of treating IRE1-related diseases and disorders” (Genentech, Inc., priority 2017, dated 2021).

The assay relates to XBP1s-luc 293 LUC. As to the kind of experiment: cellular PD assay, XBP1s-LUC reporter (Example 903). The format is cell-based. The note with it: read-out: XBP1s-luc 293 LUC (IC50). The procedure:
Inhibition of IRE1α RNase activity was determined in an enzyme assay that measured cleavage of the XBP1 stem loop by autophosphorylated IRE1α. This assay format was chosen to ensure that inhibitors of either the IRE1α kinase or the RNase domains would be identified. Binding to the ATP pocket and inhibition of IRE1α kinase activity are not necessarily required to inhibit the RNase activity. Compounds were also profiled in cellular assays by direct measurement of XBP s (B-DNA assay) or by quantification of the luciferase signal in HT1080 XBP1-Luc, which carries a luciferase fusion that is only in frame and expressed from the spliced XBP1 transcript.
Biological activity of Formula I or I′ compounds was measured by an IRE1 biochemical binding assay (Example 901), a biochemical RNase assay (Example 902), a cellular PD assay, XBP1s-LUC reporter (Example 903), and an IRE1α-based inhibition of multiple myeloma (MM) cell proliferation assay.
All of the exemplary Formula I or I′ compounds in Tables 1 and 2 were made and characterized by LCMS [M+H]^+ (liquid chromatography mass spectroscopy) with detection of parent ion. All of the exemplary Formula I compounds in Tables 1 and 2 were prepared according to the procedures of the Schemes, General Procedures, and Examples. All of the exemplary Formula I or I′ compounds in Tables 1 and 2 were tested for binding to IRE1 (inositol requiring enzyme 1 alpha) and biological activity according to the assays and protocols of Example 901-903. Exemplary Formula I or I′ compounds in Tables 1 and 2 have the following structures, corresponding IUPAC names (ChemBioDraw, Version 12.0.2, CambridgeSoft Corp., Cambridge Mass.), and biological activity. Where more than one name is associated with a Formula I or I′ compound or intermediate in Tables 1 and 2 and the Experimental Procedures, the chemical structure shall define the compound. Assignment of configuration at chiral centers in separated stereoisomers may be tentative, and depicted in Tables 1 and 2 structures for illustrative purposes, before stereochemistry is definitively established, such as from x-ray crystallographic data. In some cases, stereoisomers are separated and tested for biological activity before the stereochemistry of the separated stereoisomers is determined; and stereochemistry in some instances was inferred based on structure-activity relationship (SAR) knowledge from previous compounds. In some cases, the compounds are tested as racemic or diastereomeric mixtures. Where more than one potency value is entered on a row, separated stereoisomers represented by the structure and name on that row were tested. Exemplary compounds of Formula I or I′ in Table 3 can be prepared using methods known in the art or according to procedures similar to those described in the Schemes, General Procedures, and Examples 101-500. Biological activities of compounds in Table 3 can be tested in biological assays, for example, those in Examples 901, 902 and 903 described herein.

pIC50: −log10 of the molar value. Counter-ions that a name gives are not always drawn. Like-named read-outs stand apart in the source and are kept apart here.

For `Cc1ccc2c(NS(=O)(=O)Cc3ccccc3C(F)(F)F)cccc2c1Oc1ncccc1-c1ccnc(N[C@H]2CCCNC2)n1` [Example 142, (S)—N-(6-Methyl-5-((3-(2-(piperidin-3-ylamino)pyrimidin-4-yl)pyridin-2-yl)oxy)naphthalen-1-yl)-1-(2-(trifluoromethyl)phenyl)methanesulfonamide], the negative logarithm of the IC50 (pIC50) (usually the negative decadic logarithm of the IC50, by convention in mol/L) (Table 1) was 8.10.
On to `CCCS(=O)(=O)Nc1cccc2c(Oc3ncc(Cl)cc3-c3ccnc(N[C@H]4CCCNC4)n3)c(C)ccc12` [Example 385, (S)—N-(5-((5-Chloro-3-(2-(piperidin-3-ylamino)pyrimidin-4-yl)pyridin-2-yl)oxy)-6-methylnaphthalen-1-yl)propane-1-sulfonamide], for which, for the setting “Table 1”, the pIC50 was 6.44.
In the case of `Cc1c(F)c(NS(=O)(=O)CCC(F)(F)F)c2ccccc2c1Oc1ncccc1-c1ccnc(N[C@H]2CCCNC2)n1` [Example 482, (S)-3,3,3-Trifluoro-N-(2-fluoro-3-methyl-4-((3-(2-(piperidin-3-ylamino)pyrimidin-4-yl)pyridin-2-yl)oxy)naphthalen-1-yl)propane-1-sulfonamide], the negative-log IC50 (pIC50) (Table 2) is 7.19.
As to `Cc1ccc2c(NC(=O)CC3(C)CC3)cccc2c1Oc1ncccc1-c1ccnc(N[C@H]2CCCNC2)n1` [Example 268, (S)—N-(6-Methyl-5-((3-(2-(piperidin-3-ylamino)pyrimidin-4-yl)pyridin-2-yl)oxy)naphthalen-1-yl)-2-(1-methylcyclopropyl)acetamide], the negative-log IC50 (pIC50) (Table 1) was 6.59.
Turning to `COCCS(=O)(=O)Nc1cccc2c(Oc3ncccc3-c3ccnc(N[C@H]4CCCNC4)n3)c(C)ccc12` [Example 137, (S)-2-Methoxy-N-(6-methyl-5-((3-(2-(piperidin-3-ylamino)pyrimidin-4-yl)pyridin-2-yl)oxy)naphthalen-1-yl)ethanesulfonamide], the pIC50 (Table 1) is 6.32.
On to `Cc1ccc2c(NCC(C#N)C(C)C)cccc2c1Oc1ncccc1-c1ccnc(N[C@H]2CCCNC2)n1` (single isomer, unassigned) [Example 422], for which the negative logarithm of the IC50 (pIC50) (Table 2) is 7.08.
Regarding `Cc1ccc2c(NC(=O)[C@@H]3CC34CC4)c(F)ccc2c1Oc1ncccc1-c1ccnc(N[C@@H]2CNC[C@H](C)C2)n1` (single isomer, unassigned) [Example 389], under “Table 1”, the pIC50 was 7.38.
Regarding `COc1c(Cl)cccc1CS(=O)(=O)Nc1c(F)ccc2c(Oc3ncccc3-c3ccnc(N[C@H]4CCCNC4)n3)c(C)ccc12` [Example 437, (S)-1-(3-Chloro-2-methoxyphenyl)-N-(2-fluoro-6-methyl-5-((3-(2-(piperidin-3-ylamino)pyrimidin-4-yl)pyridin-2-yl)oxy)naphthalen-1-yl)methanesulfonamide hydrochloride], the negative logarithm of the IC50 (pIC50) (Table 2) is 7.74.
For the molecule `CO[C@@H](C)CS(=O)(=O)Nc1c(F)ccc2c(Oc3ncccc3-c3ccnc(N[C@H]4CCCNC4)n3)c(C)ccc12` (single isomer, unassigned) [Example 393, hydrochloride], where the note is “Table 2”, the pIC50 is 7.12.
On the same count and under the same terms, under `COC(C)CS(=O)(=O)Nc1c(F)ccc2c(Oc3ncccc3-c3ccnc(N[C@H]4CCCNC4)n3)c(C)ccc12` (stereo partly drawn) [Example 404, N-(2-Fluoro-6-methyl-5-((3-(2-(((S)-piperidin-3-yl)amino)pyrimidin-4-yl)pyridin-2-yl)oxy)naphthalen-1-yl)-2-methoxypropane-1-sulfonamide] stands 7.47.
Regarding `Cc1ccc2c(NS(=O)(=O)Cc3c(F)cccc3F)c(F)ccc2c1Oc1ncccc1-c1ccnc(N[C@H]2CCCNC2)n1` [Example 213, (S)-1-(2,6-Difluorophenyl)-N-(2-fluoro-6-methyl-5-((3-(2-(piperidin-3-ylamino)pyrimidin-4-yl)pyridin-2-yl)oxy)naphthalen-1-yl)methanesulfonamide], the pIC50 (Table 1) is 8.34.
With `CO[C@H]1CNC[C@@H](Nc2nccc(-c3cccnc3Oc3c(C)ccc4c(NS(=O)(=O)Cc5ccc(Cl)cc5)cccc34)n2)C1` (single isomer, unassigned) [Example 205], the negative logarithm of the IC50 (pIC50) (Table 1) was 6.89.
On the same count and under the same terms, under `Cc1ccc2c(NS(=O)(=O)CC3CC3)cccc2c1Oc1ncccc1-c1ccnc(N[C@H]2CCCNC2)n1` [Example 124, (S)-1-Cyclopropyl-N-(6-methyl-5-((3-(2-(piperidin-3-ylamino)pyrimidin-4-yl)pyridin-2-yl)oxy)naphthalen-1-yl)methanesulfonamide hydrochloride] stands 6.98; under `Cc1ccc2c(NS(=O)(=O)Cc3ccncc3)cccc2c1Oc1ncccc1-c1ccnc(N[C@H]2CCCNC2)n1` [Example 167, (S)—N-(6-Methyl-5-((3-(2-(piperidin-3-ylamino)pyrimidin-4-yl)pyridin-2-yl)oxy)naphthalen-1-yl)-1-(pyridin-4-yl)methanesulfonamide], 7.72.
In the case of `Cc1ccc2c(NC[C@@H](C)O)cccc2c1Oc1ncccc1-c1ccnc(N[C@H]2CCCNC2)n1` [Example 300, (R)-1-((6-Methyl-5-((3-(2-((S)-piperidin-3-ylamino)pyrimidin-4-yl)pyridin-2-yl)oxy)naphthalen-1-yl)amino)propan-2-ol], under “Table 1”, the pIC50 was 7.26.
`Cc1ccc2c(NS(=O)(=O)N3CCCCC3)cccc2c1Oc1ncccc1-c1ccnc(N[C@H]2CCCNC2)n1` [Example 114, (S)—N-(6-Methyl-5-((3-(2-(piperidin-3-ylamino)pyrimidin-4-yl)pyridin-2-yl)oxy)naphthalen-1-yl)piperidine-1-sulfonamide hydrochloride]: for the setting “Table 1”, the pIC50 was 6.42.
As for `Cc1cnn(-c2cccc3c(Oc4ncccc4-c4ccnc(N[C@H]5CCCNC5)n4)c(C)ccc23)c1` [Example 207, (S)-4-(2-((2-Methyl-5-(4-methyl-1H-pyrazol-1-yl)naphthalen-1-yl)oxy)pyridin-3-yl)-N-(piperidin-3-yl)pyrimidin-2-amine], for the setting “Table 1”, the negative logarithm of the IC50 (pIC50) is 6.60.
For the molecule `Cc1ccc2c(NS(=O)(=O)Cc3ccc(Cl)cc3)cccc2c1Oc1ncccc1-c1ccnc(N[C@H]2CCCNC2)n1` [Example 143, (S)-1-(4-Chlorophenyl)-N-(6-methyl-5-((3-(2-(piperidin-3-ylamino)pyrimidin-4-yl)pyridin-2-yl)oxy)naphthalen-1-yl)methanesulfonamide], the pIC50 (Table 1) is 7.77.
Turning to `Cc1ccc2c(NC(=O)CC(C)(C)C)cccc2c1Oc1ncccc1-c1ccnc(N[C@@H]2CNC[C@H](C)C2)n1` [Example 302, 3,3-Dimethyl-N-(6-methyl-5-((3-(2-(((3S,5R)-5-methylpiperidin-3-yl)amino)pyrimidin-4-yl)pyridin-2-yl)oxy)naphthalen-1-yl)butanamide], the negative-log IC50 (pIC50) (Table 1) was 7.03.
As to `Cc1ccc2c(NC(=O)N3CCCCC3)cccc2c1Oc1ncccc1-c1ccnc(N[C@H]2CCCNC2)n1` [Example 116, (S)—N-(6-Methyl-5-((3-(2-(piperidin-3-ylamino)pyrimidin-4-yl)pyridin-2-yl)oxy)naphthalen-1-yl)piperidine-1-carboxamide hydrochloride], the pIC50 (Table 1) was 6.37.
For the molecule `Cc1ccc2c(NC[C@@H]3CC3(F)F)cccc2c1Oc1ncccc1-c1ccnc(N[C@H]2CCCNC2)n1` (single isomer, unassigned) [Example 343], the negative-log IC50 (pIC50) (Table 1) was 6.74.
Regarding `Cc1ccc2c(NC(=O)CC#N)cccc2c1Oc1ncccc1-c1ccnc(N[C@H]2CCCNC2)n1` [Example 183, (S)-2-Cyano-N-(6-methyl-5-((3-(2-(piperidin-3-ylamino)pyrimidin-4-yl)pyridin-2-yl)oxy)naphthalen-1-yl)acetamide], the negative-log IC50 (pIC50) (Table 1) was 6.59.
With `Cc1ccc2c(NC[C@H](O)C(F)(F)F)c(F)ccc2c1Oc1ncccc1-c1ccnc(N[C@H]2CCCNC2)n1` [Example 377, (S)-1,1,1-Trifluoro-3-((2-fluoro-6-methyl-5-((3-(2-((S)-piperidin-3-ylamino)pyrimidin-4-yl)pyridin-2-yl)oxy)naphthalen-1-yl)amino)propan-2-ol], the pIC50 (Table 1) was 7.99.
The same measure, in the same setting: for `Cc1ccc2c(NC(=O)CC3(C)CCCC3)cccc2c1Oc1ncccc1-c1ccnc(N[C@H]2CCCNC2)n1` [Example 267, (S)—N-(6-Methyl-5-((3-(2-(piperidin-3-ylamino)pyrimidin-4-yl)pyridin-2-yl)oxy)naphthalen-1-yl)-2-(1-methylcyclopentyl)acetamide] the value was 6.79.
Take `Cc1ccc2c(NS(=O)(=O)CCC(F)F)c(F)ccc2c1Oc1ncccc1-c1ccnc(N[C@@H]2CNC[C@H](C)C2)n1` [Example 472, 3,3-Difluoro-N-(2-fluoro-6-methyl-5-((3-(2-(((3S,5R)-5-methylpiperidin-3-yl)amino)pyrimidin-4-yl)pyridin-2-yl)oxy)naphthalen-1-yl)propane-1-sulfonamide]: the negative-log IC50 (pIC50) (Table 2) was 8.10.
